# From US20260053932A1, “COMPOUNDS AND METHODS FOR THE TARGETED DEGRADATION OF ANDROGEN RECEPTOR AND ASSOCIATED METHODS OF USE” (Arvinas Operations, Inc., priority 2020, published 2026)
# System: androgen receptor (AR) in LNCaP and/or VCaP cells
# Assay: Androgen Receptor ELISA assay (AR degradation)
# Assay type: cell-based
# Conditions: LNCaP and/or VCaP cells; 5 hours incubation; media with R1881; read-out: DC50 Code* (degradation of AR ELISA)
# Outline: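 VCaP cells grown ≥3 days, then treated 5 h with compound in media containing 1 nM R1881 (10× stock). Cells lysed and AR quantified by sandwich ELISA (mouse AR detection Ab, HRP anti-mouse, TMB). DC50 and Dmax derived from AR degradation.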
row,DC50 [nM],SMILES
1,< 1,"N#Cc1ccc(O[C@H]2CC[C@H](NC(=O)c3cnc(N4CCC(CN(CC5COC5)[C@H]5C[C@H](Oc6ccc7c(c6)C(=O)N(C6CCC(=O)NC6=O)C7)C5)CC4)cn3)CC2)cc1Cl (stereo partly shown) [Compound 48, N-((1r,4r)-4-(3-chloro-4-cyanophenoxy)cyclohexyl)-5-(4-((((1r,3r)-3-((2-(2,6-dioxopiperidin-3-yl)-3-oxoisoindolin-5-yl)oxy)cyclobutyl)(oxetan-3-ylmethyl)amino)methyl)piperidin-1-yl)pyrazine-2-carboxamide]"
2,< 1,"COc1cc(O[C@H]2CC[C@H](NC(=O)c3cnc(N4CC5(CC(CN(C(C)C)[C@H]6C[C@H](Oc7ccc8c(c7)C(=O)N(C7CCC(=O)NC7=O)C8=O)C6)C5)C4)cn3)CC2)ccc1C#N (stereo partly shown) [Compound 56, N-((1r,4r)-4-(4-cyano-3-methoxyphenoxy)cyclohexyl)-5-(6-((((1r,3r)-3-((2-(2,6-dioxopiperidin-3-yl)-1,3-dioxoisoindolin-5-yl)oxy)cyclobutyl) (isopropyl)amino)methyl)-2-azaspiro[3.3]heptan-2-yl)pyrazine-2-carboxamide]"
3,< 1,"N#Cc1ccc(O[C@H]2CC[C@H](NC(=O)c3ccc(N4CCC(CN5CCN(c6ccc7c(c6)C(=O)N(C6(F)CCC(=O)NC6=O)C7=O)CC5)CC4)nn3)CC2)cc1Cl (mixture of isomers) [Compound 18, rac-N-((1r,4r)-4-(3-chloro-4-cyanophenoxy)cyclohexyl)-6-(4-((4-(2-(3-fluoro-2,6-dioxopiperidin-3-yl)-1,3-dioxoisoindolin-5-yl)piperazin-1-yl)methyl)piperidin-1-yl)pyridazine-3-carboxamide]"
4,< 1,"CC(C)N(CC1CN(c2cnc(C(=O)N[C@H]3CC[C@H](Oc4ccc(C#N)c(Cl)c4)CC3)cn2)C1)[C@H]1C[C@H](Oc2ccc3c(c2)C(=O)N(C2CCC(=O)NC2=O)C3=O)C1 (stereo partly shown) [Compound 37, N-((1r,4r)-4-(3-chloro-4-cyanophenoxy)cyclohexyl)-5-(3-((((1r,3r)-3-((2-(2,6-dioxopiperidin-3-yl)-1,3-dioxoisoindolin-5-yl)oxy)cyclobutyl) (isopropyl)amino)methyl)azetidin-1-yl)pyrazine-2-carboxamide]"
5,< 1,"CC(C)N(CC1CCN(c2cnc(C(=O)N[C@H]3CC[C@H](Oc4ccc(C#N)c(Cl)c4)CC3)cn2)CC1)[C@H]1C[C@H](Oc2c(F)cc3c(c2F)C(=O)N(C2CCC(=O)NC2=O)C3=O)C1 (stereo partly shown) [Compound 45, N-((1r,4r)-4-(3-chloro-4-cyanophenoxy)cyclohexyl)-5-(4-((((1r,3r)-3-((2-(2,6-dioxopiperidin-3-yl)-4,6-difluoro-1,3-dioxoisoindolin-5-yl)oxy)cyclobutyl) (isopropyl)amino)methyl)piperidin-1-yl)pyrazine-2-carboxamide]"

# Same assay, conditions: degradation of AR ELISA in LNCaP and/or VCaP cells; Table 2C; read-out: DC50 Code*
row,DC50 [nM],SMILES
1,1 to 10,"COc1cc(O[C@H]2C(C)(C)[C@H](NC(=O)c3cnc(N4CC(CN(C(C)C)[C@H]5C[C@H](Oc6ccc7c(c6)C(=O)N(C6CCC(=O)NC6=O)C7=O)C5)C4)cn3)C2(C)C)ccc1C#N (stereo partly shown) [compound 130, N-((1r,3r)-3-(4-cyano-3-methoxyphenoxy)-2,2,4,4-tetramethylcyclobutyl)-5-(3-((((1r,3r)-3-((2-(2,6-dioxopiperidin-3-yl)-1,3-dioxoisoindolin-5-yl)oxy)cyclobutyl) (isopropyl)amino)methyl)azetidin-1-yl)pyrazine-2-carboxamide]"
2,< 1,"Cc1cc(O[C@H]2C(C)(C)[C@H](NC(=O)c3cnc(N4CCC(CN(CCN5CCOCC5)[C@H]5C[C@H](Oc6ccc7c(c6)C(=O)N(C6CCC(=O)NC6=O)C7=O)C5)CC4)nc3)C2(C)C)cc(C)c1C#N (stereo partly shown) [compound 90, N-((1r,3r)-3-(4-cyano-3,5-dimethylphenoxy)-2,2,4,4-tetramethylcyclobutyl)-2-(4-((((1r,3r)-3-((2-(2,6-dioxopiperidin-3-yl)-1,3-dioxoisoindolin-5-yl)oxy)cyclobutyl)(2-morpholinoethyl)amino)methyl)piperidin-1-yl)pyrimidine-5-carboxamide]"
3,< 1,"COc1cc(O[C@H]2C(C)(C)[C@H](NC(=O)c3ccc(N4CC5(CC(CN(C(C)C)[C@H]6C[C@H](Oc7ccc8c(c7)C(=O)N(C7CCC(=O)NC7=O)C8=O)C6)C5)C4)cc3)C2(C)C)ccc1C#N (mixture of isomers) [compound 216, rac-N-((1r,3r)-3-(4-cyano-3-methoxyphenoxy)-2,2,4,4-tetramethylcyclobutyl)-4-(6-((((1r,3r)-3-((2-(2,6-dioxopiperidin-3-yl)-1,3-dioxoisoindolin-5-yl)oxy)cyclobutyl) (isopropyl)amino)methyl)-2-azaspiro[3.3]heptan-2-yl)benzamide]"
4,> 100,"CC1(C)[C@H](NC(=O)c2ccc(N3CCC(CN4CCN(c5ccc6c(c5)C5(CC5)N(C5CCC(=O)NC5=O)C6=O)CC4)CC3)cc2)C(C)(C)[C@H]1Oc1ccc(C#N)c(Cl)c1 (stereo partly shown) [compound 139, N-((1r,3r)-3-(3-chloro-4-cyanophenoxy)-2,2,4,4-tetramethylcyclobutyl)-4-(4-((4-(2′-(2,6-dioxopiperidin-3-yl)-3′-oxospiro[cyclopropane-1,1′-isoindolin]-6′-yl)piperazin-1-yl)methyl)piperidin-1-yl)benzamide]"
5,< 1,"COCCOCCOCCOCCOCCN(CC1CCN(c2ncc(C(=O)N[C@H]3C(C)(C)[C@H](Oc4cc(C)c(C#N)c(C)c4)C3(C)C)cn2)CC1)[C@H]1C[C@H](Oc2ccc3c(c2)C(=O)N(C2CCC(=O)NC2=O)C3=O)C1 (stereo partly shown) [compound 155, N-((1r,3r)-3-(4-cyano-3,5-dimethylphenoxy)-2,2,4,4-tetramethylcyclobutyl)-2-(4-(2-((1r,3r)-3-((2-(2,6-dioxopiperidin-3-yl)-1,3-dioxoisoindolin-5-yl)oxy)cyclobutyl)-5,8,11,14,17-pentaoxa-2-azaoctadecyl)piperidin-1-yl)pyrimidine-5-carboxamide]"
6,< 1,"COc1cc(O[C@H]2C(C)(C)[C@H](NC(=O)c3cnc(N4CCC(CN(C(C)C)[C@H]5C[C@H](Oc6cccc7c6CN(C6CCC(=O)NC6=O)C7=O)C5)CC4)cn3)C2(C)C)ccc1C#N (mixture of isomers) [compound 177, rac-N-((1r,3r)-3-(4-cyano-3-methoxyphenoxy)-2,2,4,4-tetramethylcyclobutyl)-5-(4-((((1r,3r)-3-((2-(2,6-dioxopiperidin-3-yl)-1-oxoisoindolin-4-yl)oxy)cyclobutyl) (isopropyl)amino)methyl)piperidin-1-yl)pyrazine-2-carboxamide]"
7,< 1,"CC(C)N(CC1CCN(c2ncc(C(=O)N[C@H]3C(C)(C)[C@H](Oc4ccc(C#N)c(Cl)c4)C3(C)C)cn2)CC1)[C@H]1C[C@H](Oc2ccc3c(c2)C(=O)N(C2CCC(=O)NC2=O)C3)C1 (stereo partly shown) [compound 95, N-((1r,3r)-3-(3-chloro-4-cyanophenoxy)-2,2,4,4-tetramethylcyclobutyl)-2-(4-((((1r,3r)-3-((2-(2,6-dioxopiperidin-3-yl)-3-oxoisoindolin-5-yl)oxy)cyclobutyl) (isopropyl)amino)methyl)piperidin-1-yl)pyrimidine-5-carboxamide]"
8,< 1,"Cc1cc(O[C@H]2C(C)(C)[C@H](NC(=O)c3cnc(N4CCC(CN5CC(Oc6ccc7c(c6)C(=O)N(C6CCC(=O)NC6=O)C7=O)C5)CC4)cn3)C2(C)C)cc(C)c1C#N (stereo partly shown) [compound 99, N-((1r,3r)-3-(4-cyano-3,5-dimethylphenoxy)-2,2,4,4-tetramethylcyclobutyl)-5-(4-((3-((2-(2,6-dioxopiperidin-3-yl)-1,3-dioxoisoindolin-5-yl)oxy)azetidin-1-yl)methyl)piperidin-1-yl)pyrazine-2-carboxamide]"
